{"source": "patent US7259185B2", "about": "(priority 2005, dated 2007)", "key": {"[1]": {"details": "in vivo; cited from earlier work"}, "[2]": {"details": "pH buffer of pH between 8 and 9, room temperature", "excerpt": "In a more preferred embodiment, pH of about 8 to 9, is provided. For example, a buffer close to a pH of about 8.3 can be used."}, "[3]": {"details": "pH 9 carbonate buffer, after approximately 1 week at 50° C."}, "[4]": {"details": "for Color change: 50° C."}, "[5]": {"assay_type": "physicochemical", "details": "6 mg dose, no pepsin, after 24 hours", "description": "A 250 mL volumetric flask was used to simulate the capacity of stomach gastric volume, and a pH 1.5 HCl buffer (0.8% NaCl, 0.04% CaCl2) was used for the simulated gastric fluid (SGF)."}, "[6]": {"details": "buffer at pH 7, glycerin increased to 35% by volume"}, "[7]": {"details": "2 mg/mL in pH 7 phosphate buffer (100 mM), RT"}}, "note": "Where “and” joins values, the source holds several entries; their conditions need not be identical. Equal entries are not always repeated. Entries after “also recorded” stand apart in the source; their conditions may differ. Where two headings read alike, the source gives them in different places."}
{"smiles": "CC(=O)CC(c1ccccc1)c1c(O)c2ccccc2oc1=O", "note": "(racemic) [warfarin]", "values": [{"measurement": "apparent Vd", "setting": "[1]", "result": 0.13, "unit": "L/kg"}]}
{"smiles": "CC(=O)CC(c1ccccc1)c1c([O-])c2ccccc2oc1=O.[Na+]", "note": "(stereo not shown) [warfarin sodium, 4-hydroxy-3-(3-oxo-1-phenylbutyl)-2H-1-benzopyran-2one sodium salt]", "values": [{"measurement": "precipitation", "setting": "[2]", "result": "free of precipitation for at least one month"}, {"measurement": "Color change", "setting": "[3]", "result": "slight yellowing"}, {"measurement": "Color change", "setting": "[4]; 1:1 mixture with ethanol, pH 8 buffer", "result": "No color change"}, {"measurement": "Color change", "setting": "[4]; 1:1 mixture with glycerin, pH 8 buffer", "result": "No color change"}, {"measurement": "% degradation of warfarin sodium", "setting": "[4]; Phosphate buffer pH 8 alone, 1 month at 50° C.", "result": 1.4, "unit": "%"}, {"measurement": "Color change", "setting": "[4]; Phosphate buffer pH 8 alone", "result": "Light yellow"}, {"measurement": "Color change", "setting": "[4]; pH 8 buffer with Liquid sugar (50% v/v), sodium salt", "result": "slight yellow color change"}, {"measurement": "% degradation of warfarin sodium", "setting": "[4]; pH 8 buffer with Liquid sugar (50% v/v), after 312 hr at 50° C.", "result": "2.4 (after 312 hr) %"}, {"measurement": "Color change", "setting": "[4]; pH 8 buffer with Mannitol (5% w/v), sodium salt", "result": "slight yellow color change; also recorded: Light yellow"}, {"measurement": "% degradation of warfarin sodium", "setting": "[4]; pH 8 buffer with Mannitol (5% w/v), after 384 hr at 50° C.", "result": "1.9 (after 384 hr) %"}, {"measurement": "% degradation of warfarin sodium", "setting": "[4]; pH 8 buffer with Saccharin (0.5% w/v), 1 month at 50° C.", "result": 3.3, "unit": "%"}, {"measurement": "Color change", "setting": "[4]; pH 8 buffer with Saccharin (0.5% w/v), sodium salt", "result": "slight yellow color change; also recorded: Light yellow"}, {"measurement": "% degradation of warfarin sodium", "setting": "[4]; pH 8 buffer with Sorbitol (50% v/v), 1 month at 50° C.", "result": 2.9, "unit": "%"}, {"measurement": "Color change", "setting": "[4]; pH 8 buffer with Sorbitol (50% v/v), sodium salt", "result": "slight yellow color change; also recorded: Light yellow"}, {"measurement": "% degradation of warfarin sodium", "setting": "[4]; pH 8 buffer with TWEEN 80 (0.5% v/v), 1 month at 50° C.", "result": 5.1, "unit": "%"}, {"measurement": "precipitation of warfarin sodium in SGF", "setting": "[5]", "result": "precipitate out of solution"}, {"measurement": "precipitation of warfarin", "setting": "[6]", "result": "prevents precipitation"}, {"measurement": "Warfarin concentration", "setting": "[7]; time 0.017 hr", "result": 1.846, "unit": "mg/mL"}, {"measurement": "Warfarin concentration", "setting": "[7]; time 0.083 hr", "result": 1.819, "unit": "mg/mL"}, {"measurement": "Warfarin concentration", "setting": "[7]; time 0.167 hr", "result": 1.796, "unit": "mg/mL"}, {"measurement": "Warfarin concentration", "setting": "[7]; time 0.333 hr", "result": 1.847, "unit": "mg/mL"}, {"measurement": "Warfarin concentration", "setting": "[7]; time 0.5 hr", "result": 1.844, "unit": "mg/mL"}, {"measurement": "Warfarin concentration", "setting": "[7]; time 1 hr", "result": 1.8765, "unit": "mg/mL"}, {"measurement": "Warfarin concentration", "setting": "[7]; time 3 hr", "result": 1.858, "unit": "mg/mL"}, {"measurement": "Warfarin concentration", "setting": "[7]; time 5 hr", "result": 1.804, "unit": "mg/mL"}, {"measurement": "Warfarin concentration", "setting": "[7]; time 10 hr", "result": 1.822, "unit": "mg/mL"}, {"measurement": "Warfarin concentration", "setting": "[7]; time 13.5 hr", "result": 2.0099, "unit": "mg/mL"}, {"measurement": "Warfarin concentration", "setting": "[7]; time 17.25 hr", "result": 1.97, "unit": "mg/mL"}, {"measurement": "Warfarin concentration", "setting": "[7]; time 48 hr", "result": 1.113, "unit": "mg/mL"}, {"measurement": "Warfarin concentration", "setting": "[7]; time 192 hr, sodium salt", "result": "0.357 mg/mL and 0.362 mg/mL"}]}
